Assay results reported in patent US6482833B2, “Immunotherapeutic anti-cancer pharmaceutical compositions” (North Shore - Long Island Jewish Research Institute, priority 1997, dated 2002).
Entries after “also recorded” stand apart in the source; their conditions may differ.

Columns and labels:
tumor cells = assay: Direct cytotoxicity of the immunomodulatory compounds; assay type: cell-based; conditions: effective immunostimulatory concentrations
[1] = Carrageenan foot pad edema model of inflammation; assay type: in vivo, mice
Method: To determine an inflammatory […] foot pad edema model with carrageenan, female C3H/HeN mice (20-25g) were obtained from Jackson Laboratories, and 5 mice were used in each group to obtain statistically significant results. […] Louis, Mo.) was made in PBS at 37° C. 3 days or more before using. […] Louis, Mo.) was made freshly each time. Carrageenan (50 μl, 0.2%) was injected into the plantar surface of the left hind paw to induce paw edema in control group. and spermine at the doses indicated was coadministered in 50 μl PBS in three spermine groups. The right hind paw was injected with the same volume of PBS as control for every groups. The thickness of the two paws was measured double-blindly using a caliper 3 hours and 28 hours later. The difference in the thickness between the two paws was taken as inflammatory index.

B16 F1 tumor cells = assay: In vivo mouse tumor model (B16 F1 cells), tumor size and formation; set-up: species or system mice; conditions: for solid tumor masses: mice, administered parenterally
[2] = test system: TNFα release from LPS-stimulated macrophage cell cultures; assay: TNF release from LPS-activated monocyte/macrophage cultures counter-regulated by spermine (ELISA); assay type: cell-based, human; conditions: for override of spermine inhibition of TNFα release: LPS-stimulated cells with spermine, TNFα in culture supernatants, dose-response
Method: Macrophage activation was measured by release of TNF into macrophage cell culture supernatants.
Monocytes were isolated and cultured by isolating fresh human PBMCs from EDTA-blood from healthy donors (Long Island Blood Service, Melville, N.Y.) by Ficoll-Paque (Pharmacia, Uppsala, Sweden) gradient. Cells were suspended in RPMI 1640 medium (Gibco BRL, Grand Island, N.Y.) containing 10% heat-inactivated human serum, 0.1% L-glutamine, and 0.01% gentamycin), and cultured at 37° C. in a humidified atmosphere of 5% CO2 and 95% air. PBMCs were plated in 96-well plates at 5×10^5 cells per well for cytokine assay and uptake study or in 24-well plates at 5×10^6 cells per well for RNA study. Nonadherent cells were removed after overnight culture, and adherent cells (monocytes) were then used for experiment.
(§1) Monocytes were activated to release cytokines by treating cells with 100 ng/ml sonicated LPS (Sigma, St Louis, Mo.) and 25 u/ml recombinant human interferon-γ (Boehringer Mannheim, Mannheim, Germany) except 1 μg/ml LPS alone for IL-1β. For treating cells with spermine, cells were pretreated with spermine (Sigma, St Louis, Mo.) one hour before LPS/IFG stimulation. Spermine was made freshly each time in sterile-filtered deionized water at 51.2 mM or 35 mM, and then diluted in complete RPMI 1640 medium followed by adding to individual wells to yield the final concentration indicated. Control wells received an equal volume of medium only were used in all experiment.

monocytes = conditions: spermine at the concentrations indicated
Method: as §1

G361 cells = assay: Macrophage-mediated cytotoxicity of LPS-activated monocytes to tumor cells
Method: Tumor cell cultures were split tumor cells 1:3 in FBS-containing RPMI 1640 medium and incubate overnight 20 μCi/ml ^3H-thymidine was added to tumor cell cultures to label the cells overnight. The cells were washed to remove unabsorbed label. The cells were trypsinized and suspended in 10 ml DPBS, washed and counted. Flasks of 7.5×10^5, 7.5/2×10^5, 7.5/4×10^5, 7.5/8×10^5, 7.5/16×10^5 and 7.7/32×10^5 cells/ml in RPMI 1640 medium were prepared. The tumor cells (200 μl) were added to wells containing 3×10^5 monocytes or control wells to make the E/T ratio 2:1, 4:1, 8:1, 16:1, 32:1 and 64:1. The cell mixture was incubated for 2 hours and macrophage-mediated cytotoxicity to tumor cells was determined.
PBMCs were isolated in a Ficoll-Paque (Pharmacia) gradient and plated. After 2 hours of incubation, the nonadherent cells were removed by rinsing with RPMI 1640 medium without serum 3×, then add 25 ml human serum-containing RPMI 1640 medium with 2 ng/ml human MCSF to each 75 flask and incubate the cells overnight. The cells were labeled with 20 uCi/ml ^3H-thymidine overnight and washed 2× with DPBS without Ca & Mg. The monocytes were isolated and counted, then diluted to 1.5×10^6 cells/ml in RPMI 1640. Tumor cells were diluted to 7.5×10^5, 7.5/2×10^5, 7.5/4×10^5, 7.5/8×10^5, 7.5/16×10^5 and 7.7/32×10^5 cells/ml in RPMI 1640 medium. About 200 μl tumor cells were added at different concentration to the wells containing 3×10^5 monocytes or control wells to make the E/T ratio 2:1, 4:1, 8:1, 16:1, 32:1 and 64:1, then incubated for 2 hrs.
About 400 μg/μl LPS was sonicated for 10 min, then 19.2 μl 400 μg/ml LPS was added to 10 ml RPMI 1640 medium.

TNF = TNF levels in tumor biopsy samples of solid tumor-bearing mice; assay type: in vivo; conditions: 1 mg/kg ip; tumor biopsy samples in four mice
[3] = 50 μM spermine, macrophages activated by endotoxin (LPS)

**Q.** What does the source list for `CC1(C)CC(NCCCCCCNC2CC(C)(C)NC(C)(C)C2)CC(C)(C)N1` [compound 38, N,N′-bis(2,2,6,6-tetramethyl-4-piperidyl)hexamethylenediamine]?
**A.** direct cytotoxicity (tumor cells): not cytotoxic; paw edema, override of inflammatory inhibition by spermine ([1]; in vivo mouse paw edema model, dose response): overrode the inflammatory inhibition by spermine; paw thickness, override of spermine effect ([1]; mouse foot pad carrageenan model, clinical concentrations): overrides the spermine effect; tumor formation (B16 F1 tumor cells; mice inoculated with equal amounts of tumor cells, three doses at two concentrations): delayed tumor formation; solid tumor masses (B16 F1 tumor cells): shrink solid tumor masses; override of spermine inhibition of TNFα release [2]: overcome spermine inhibition of TNFα release; also recorded: effectively overrode spermine-induced suppression of TNF secretion

**Q.** For `NCCCCC(CN)CCCN` (stereo not shown) [compound 94], which direct cytotoxicity (tumor cells) is on record?
**A.** The direct cytotoxicity was “not cytotoxic”.

**Q.** Which “acute footpad inflammation induced by carageenan” value ([1]; local administration in mice) does the source give for `NCCCNCCCCNCCCN` [spermine] here?
**A.** The value was “protected mice against the development of acute footpad inflammation”.

**Q.** What about the “cell viability (LDH assay)” value (monocytes) of the same compound?
**A.** The value was “did not affect cell viability significantly”.

**Q.** And the “suppression of TNF secretion” value [2, 3]?
**A.** The value was “effectively suppressed TNF secretion”.

**Q.** And the “inhibition of cytokine synthesis” value ([2]; serum-free conditions and in the presence of the polyamine oxidase inhibitor aminoguanidine)?
**A.** The value was “effectively inhibit cytokine synthesis”.

**Q.** And the “percent cytotoxicity, LPS alone versus LPS with spermine” value (G361 cells; 100 ng/ml LPS, 50 mM spermine, several ratios)?
**A.** The value was “reduces LPS-induced cytotoxicity”.

**Q.** What about the “cellular cytotoxicity of activated monocytes against G361 cells” value (G361 cells; 100 ng/ml LPS, 50-100 μM spermine) of the same compound?
**A.** Its value is “significantly inhibited”.

**Q.** And the “macrophage-mediated tumor cell killing” value (G361 cells; [3])?
**A.** The value was “effectively suppressed macrophage-mediated tumor cell killing”.

**Q.** With `C(CCC1CCNCC1)CC1CCNCC1` [compound 214140] as the compound, how does the “override of spermine inhibition of TNFα release” value [2] read?
**A.** The value was “override the inhibitory effect of spermine”.

**Q.** With `NCCCN1CCN(CCCN)CC1` [compound 91] as the compound, how does the direct cytotoxicity (tumor cells) read?
**A.** Its direct cytotoxicity is “not cytotoxic”.

**Q.** What about the “tumor size, time-response” value (B16 F1 tumor cells; 2 mg/kg) of the same compound?
**A.** Its value is “shrink tumor size”.

**Q.** And the “growth of established tumors” value (B16 F1 tumor cells; 2 mg/kg administered seven days after tumor inoculation)?
**A.** The value was “inhibited the growth of established tumors”.

**Q.** And the solid tumor masses (B16 F1 tumor cells)?
**A.** Its solid tumor masses is “shrink solid tumor masses”.

**Q.** What about the “tumor size, time response and dose-response” value (B16 F1 tumor cells; two doses i.p., 0.5 mg/kg and 2 mg/kg in sterile PBS) of the same compound?
**A.** Its value is “shrink tumor size”.

**Q.** And the “TNF levels in tumors” value (TNF)?
**A.** The value was “significantly increase TNF levels in tumors”.

**Q.** And the “override of spermine inhibition of TNFα release” value [2]?
**A.** The value was “effectively overrode spermine-induced suppression of TNF secretion”.
